Data on eleven molecules can be found in ChEMBL document CHEMBL5370650, “Discovery of Clinical Candidate NT-0796, a Brain-Penetrant and Highly Potent NLRP3 Inflammasome Inhibitor for Neuroinflammatory Disorders” (J Med Chem, 2023).

≈ marks a conversion by molar mass, not a printed value. Calls of active or inactive are those of the source. The rule behind the calls is not given here.

In data set [1] the target is T1, NACHT, LRR and PYD domains-containing protein 3 (Homo sapiens, UniProt Q96P20). The data set is described as follows: Inhibition of NLRP3 inflammasome activation in LPS-activated human PBMC cells assessed as inhibition of ATP/nigericin induced IL-1beta secretion preincubated with LPS for 3 hrs followed by compound addition for 30 mins and further stimulated with ATP for 1 hr by ELISA. Type of data set: cell-based. (In general: ELISA stands for enzyme-linked immunosorbent assay.)
T1 sequence (Q96P20 whole entry, the tested form may be a part): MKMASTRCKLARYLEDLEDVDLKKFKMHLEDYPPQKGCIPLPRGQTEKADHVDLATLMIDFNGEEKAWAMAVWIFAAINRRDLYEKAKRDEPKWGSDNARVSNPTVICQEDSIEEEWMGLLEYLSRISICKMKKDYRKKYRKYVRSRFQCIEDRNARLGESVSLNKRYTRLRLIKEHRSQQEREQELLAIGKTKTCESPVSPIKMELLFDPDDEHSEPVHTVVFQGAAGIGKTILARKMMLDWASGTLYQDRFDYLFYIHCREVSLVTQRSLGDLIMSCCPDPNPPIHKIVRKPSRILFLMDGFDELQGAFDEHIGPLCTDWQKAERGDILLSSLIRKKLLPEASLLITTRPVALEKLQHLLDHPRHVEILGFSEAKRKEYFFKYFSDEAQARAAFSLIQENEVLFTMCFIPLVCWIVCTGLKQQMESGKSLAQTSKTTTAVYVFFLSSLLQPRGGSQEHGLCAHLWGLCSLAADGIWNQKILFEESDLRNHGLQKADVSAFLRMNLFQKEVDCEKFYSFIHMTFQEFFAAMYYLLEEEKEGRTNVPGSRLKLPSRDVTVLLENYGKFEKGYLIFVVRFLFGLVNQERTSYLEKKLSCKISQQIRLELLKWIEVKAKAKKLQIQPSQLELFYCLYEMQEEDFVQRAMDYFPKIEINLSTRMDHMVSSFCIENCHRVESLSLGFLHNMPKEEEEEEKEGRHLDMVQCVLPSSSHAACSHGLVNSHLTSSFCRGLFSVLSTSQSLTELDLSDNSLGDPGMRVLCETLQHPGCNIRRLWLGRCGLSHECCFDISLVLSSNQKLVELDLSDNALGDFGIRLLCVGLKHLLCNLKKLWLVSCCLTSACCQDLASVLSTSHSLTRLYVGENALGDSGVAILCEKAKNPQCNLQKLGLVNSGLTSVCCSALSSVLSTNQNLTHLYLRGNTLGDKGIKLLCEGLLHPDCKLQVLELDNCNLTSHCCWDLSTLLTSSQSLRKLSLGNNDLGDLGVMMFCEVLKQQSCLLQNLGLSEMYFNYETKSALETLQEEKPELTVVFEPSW

The target in data set [2] is T1, NACHT, LRR and PYD domains-containing protein 3. The data set is described as follows: Inhibition of NLRP3 inflammasome activation in human whole blood assessed as inhibition of LPS/ATP induced IL-1beta secretion preincubated with LPS for 3 hrs followed by compound addition for 30 mins and further stimulated with ATP for 60 mins by ELISA. The class given is tissue-based.

Data set [3] can be described thus: Inhibition of LPS-induced TNFalpha secretion in human PBMC cells incubated for 4 hrs by ELISA.
A short description of data set [4]: Inhibition of LPS-induced IL-6 secretion in human PBMC cells incubated for 4 hrs by ELISA.
The nature of data set [5]: Permeability of compound at pH 7.4 incubated for 4 hrs by […] based PAMPA assay. The class given is ADME. The settings on record: read-out: permeability.
Data set [6] is described as follows: Kinetic solubility of compound in PBS at pH7.4 at 1 to 200 uM incubated for 24 hrs by LC-UV analysis. Type of data set: physicochemical. The settings on record: pH 7.4, dose 1-200 µM, read-out: Kinetic_solubility.
Data set [7] deals with T2, Cytochrome P450 1A2 (Homo sapiens, UniProt P05177).
T2 sequence (P05177 whole entry): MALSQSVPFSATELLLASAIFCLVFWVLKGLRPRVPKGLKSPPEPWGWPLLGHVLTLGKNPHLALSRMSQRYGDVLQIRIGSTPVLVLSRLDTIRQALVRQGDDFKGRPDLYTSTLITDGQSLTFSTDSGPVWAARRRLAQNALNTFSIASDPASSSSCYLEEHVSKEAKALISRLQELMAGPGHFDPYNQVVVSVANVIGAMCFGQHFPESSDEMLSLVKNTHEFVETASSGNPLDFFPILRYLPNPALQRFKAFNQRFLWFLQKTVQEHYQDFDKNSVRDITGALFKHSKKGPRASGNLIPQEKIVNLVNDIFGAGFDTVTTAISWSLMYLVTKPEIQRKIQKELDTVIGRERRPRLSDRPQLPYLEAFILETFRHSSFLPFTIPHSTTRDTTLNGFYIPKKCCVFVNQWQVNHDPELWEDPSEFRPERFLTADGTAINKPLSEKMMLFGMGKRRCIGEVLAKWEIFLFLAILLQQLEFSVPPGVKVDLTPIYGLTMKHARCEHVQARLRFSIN
The data set is described as follows: Reversible inhibition of CYP1A2 in human liver microsomes in presence of NADPH by LC-MS/MS analysis. The class given is ADME, Microsome. Background: Microsomes from liver hold many membrane-bound enzymes, among them those of drug oxidation.

The target of data set [8] is Cytochrome P450 2C19 (Homo sapiens, UniProt P33261). The data set can be described thus: Reversible inhibition of CYP2C19 in human liver microsomes using S-mephenytoin as substrate incubated for 20 mins in presence of NADPH by LC-MS/MS analysis. Type of data set: ADME, Microsome.
Sequence of Cytochrome P450 2C19 (P33261 whole entry): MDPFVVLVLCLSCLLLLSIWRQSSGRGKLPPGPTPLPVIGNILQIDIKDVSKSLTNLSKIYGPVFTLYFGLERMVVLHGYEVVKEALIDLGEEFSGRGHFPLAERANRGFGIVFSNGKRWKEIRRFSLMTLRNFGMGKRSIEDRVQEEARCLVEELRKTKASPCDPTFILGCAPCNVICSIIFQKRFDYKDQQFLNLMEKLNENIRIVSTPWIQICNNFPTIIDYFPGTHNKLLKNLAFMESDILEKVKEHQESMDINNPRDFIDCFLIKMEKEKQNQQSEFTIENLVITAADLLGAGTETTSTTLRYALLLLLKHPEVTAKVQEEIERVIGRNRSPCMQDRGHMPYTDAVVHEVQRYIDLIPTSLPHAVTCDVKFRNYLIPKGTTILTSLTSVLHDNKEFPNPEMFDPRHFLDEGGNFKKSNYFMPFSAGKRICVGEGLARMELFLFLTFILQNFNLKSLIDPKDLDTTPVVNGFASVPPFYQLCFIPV
Data set [9] deals with Cytochrome P450 2C9 (Homo sapiens, UniProt P11712). The data set can be described thus: Reversible inhibition of CYP2C9 in human liver microsomes in presence of NADPH by LC-MS/MS analysis. The class given is ADME, Microsome.
Sequence of Cytochrome P450 2C9 (P11712 whole entry): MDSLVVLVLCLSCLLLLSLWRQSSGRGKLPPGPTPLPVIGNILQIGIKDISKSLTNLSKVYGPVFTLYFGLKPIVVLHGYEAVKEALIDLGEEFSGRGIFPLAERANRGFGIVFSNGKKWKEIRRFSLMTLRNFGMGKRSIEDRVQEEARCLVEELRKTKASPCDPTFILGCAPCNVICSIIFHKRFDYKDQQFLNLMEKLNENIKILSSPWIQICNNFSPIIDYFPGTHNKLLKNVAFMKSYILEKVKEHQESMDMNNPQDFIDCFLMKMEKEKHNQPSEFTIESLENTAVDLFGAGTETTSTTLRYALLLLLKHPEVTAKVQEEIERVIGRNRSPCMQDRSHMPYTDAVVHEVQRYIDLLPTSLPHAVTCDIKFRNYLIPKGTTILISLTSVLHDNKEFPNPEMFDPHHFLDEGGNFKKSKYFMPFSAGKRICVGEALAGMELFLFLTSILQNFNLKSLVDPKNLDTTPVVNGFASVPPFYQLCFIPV
For data set [10], the target named is Cytochrome P450 2D6 (Homo sapiens, UniProt P10635). The data set is described as follows: Reversible inhibition of CYP2D6 in human liver microsomes in presence of NADPH by LC-MS/MS analysis. Type of data set: ADME, Microsome.
Sequence of Cytochrome P450 2D6 (P10635 whole entry): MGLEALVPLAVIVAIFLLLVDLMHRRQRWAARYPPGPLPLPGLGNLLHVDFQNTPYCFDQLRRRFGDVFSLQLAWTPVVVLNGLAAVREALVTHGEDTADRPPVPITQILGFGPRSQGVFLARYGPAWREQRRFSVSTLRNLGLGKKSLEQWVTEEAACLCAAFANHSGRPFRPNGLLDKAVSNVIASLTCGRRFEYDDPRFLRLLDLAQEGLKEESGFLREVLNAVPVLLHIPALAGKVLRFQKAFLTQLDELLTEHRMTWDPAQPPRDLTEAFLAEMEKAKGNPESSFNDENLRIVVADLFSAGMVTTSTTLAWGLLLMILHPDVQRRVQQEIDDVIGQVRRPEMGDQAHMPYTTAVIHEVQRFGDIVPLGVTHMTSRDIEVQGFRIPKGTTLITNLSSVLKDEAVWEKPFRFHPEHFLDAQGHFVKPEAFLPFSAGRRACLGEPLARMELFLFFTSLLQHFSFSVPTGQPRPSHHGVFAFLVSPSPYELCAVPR
Data set [11] concerns the target T3, Cytochrome P450 3A4 (Homo sapiens, UniProt P08684). The data set is described as follows: Reversible inhibition of CYP3A4 in human liver microsomes using nifedipine as substrate incubated for 5 mins in presence of NADPH by LC-MS/MS analysis. Type of data set: ADME, Microsome.
Data set [12] deals with 5-hydroxytryptamine receptor 2B (Homo sapiens) (UniProt P41595). The data set can be described thus: Antagonist activity at 5HT2B (unknown origin) at 10 uM by Eurofins-CEREP panel assay relative to control. Also noted: scale not given: the % may be the effect or the level left. The settings on record: filed as antagonist. The class given is functional.
Sequence of 5-hydroxytryptamine receptor 2B (Homo sapiens) (P41595 whole entry): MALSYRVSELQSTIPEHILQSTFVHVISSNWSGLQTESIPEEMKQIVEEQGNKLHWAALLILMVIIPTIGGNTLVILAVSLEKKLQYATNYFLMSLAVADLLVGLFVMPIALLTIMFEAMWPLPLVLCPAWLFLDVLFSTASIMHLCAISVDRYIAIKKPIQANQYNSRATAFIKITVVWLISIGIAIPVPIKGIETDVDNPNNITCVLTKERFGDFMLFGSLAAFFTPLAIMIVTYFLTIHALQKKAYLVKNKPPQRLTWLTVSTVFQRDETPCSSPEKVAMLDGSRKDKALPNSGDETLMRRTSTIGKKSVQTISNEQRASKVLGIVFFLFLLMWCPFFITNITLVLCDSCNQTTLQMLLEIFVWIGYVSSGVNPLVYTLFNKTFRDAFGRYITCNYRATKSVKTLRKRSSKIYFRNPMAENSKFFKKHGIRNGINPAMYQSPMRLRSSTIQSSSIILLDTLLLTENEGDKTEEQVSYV
In data set [13] the target is T4, Cytochrome P450 2B6 (Homo sapiens, UniProt P20813).
T4 sequence (P20813 whole entry): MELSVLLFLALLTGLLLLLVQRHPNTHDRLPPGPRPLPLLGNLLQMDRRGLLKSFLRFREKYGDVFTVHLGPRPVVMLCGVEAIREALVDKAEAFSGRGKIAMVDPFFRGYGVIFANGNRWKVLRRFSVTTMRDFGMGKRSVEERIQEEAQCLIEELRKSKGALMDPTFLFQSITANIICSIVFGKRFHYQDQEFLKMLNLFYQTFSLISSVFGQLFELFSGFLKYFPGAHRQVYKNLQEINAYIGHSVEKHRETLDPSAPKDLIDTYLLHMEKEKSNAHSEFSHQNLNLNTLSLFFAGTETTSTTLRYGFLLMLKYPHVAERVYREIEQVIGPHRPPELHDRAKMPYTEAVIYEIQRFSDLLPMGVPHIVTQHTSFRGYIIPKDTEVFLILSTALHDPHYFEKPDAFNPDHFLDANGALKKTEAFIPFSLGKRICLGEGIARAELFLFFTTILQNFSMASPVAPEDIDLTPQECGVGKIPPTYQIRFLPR
The data set is described as follows: Reversible inhibition of CYP2B6 in human liver microsomes in presence of NADPH by LC-MS/MS analysis. Type of data set: ADME, Microsome.

Data set [14] deals with T5, Cytochrome P450 2C8 (Homo sapiens, UniProt P10632).
T5 sequence (P10632 whole entry): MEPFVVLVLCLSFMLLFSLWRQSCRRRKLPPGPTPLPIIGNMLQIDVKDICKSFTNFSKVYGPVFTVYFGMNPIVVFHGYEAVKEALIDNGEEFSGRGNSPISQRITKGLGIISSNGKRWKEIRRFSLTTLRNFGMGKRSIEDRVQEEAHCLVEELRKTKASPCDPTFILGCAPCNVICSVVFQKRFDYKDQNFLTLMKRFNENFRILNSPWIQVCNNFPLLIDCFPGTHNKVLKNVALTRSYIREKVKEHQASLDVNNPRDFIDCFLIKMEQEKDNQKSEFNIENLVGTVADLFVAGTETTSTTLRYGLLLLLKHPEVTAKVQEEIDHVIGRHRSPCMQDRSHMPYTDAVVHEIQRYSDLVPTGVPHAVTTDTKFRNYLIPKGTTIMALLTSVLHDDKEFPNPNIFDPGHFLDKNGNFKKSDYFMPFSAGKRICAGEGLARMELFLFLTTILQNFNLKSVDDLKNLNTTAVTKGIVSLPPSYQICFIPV
The data set is described as follows: Reversible inhibition of CYP2C8 in human liver microsomes in presence of NADPH by LC-MS/MS analysis. The class given is ADME, Microsome.

Data set [15] addresses T3, Cytochrome P450 3A4. The data set can be described thus: Reversible inhibition of CYP3A4 in human liver microsomes using midazolam as substrate in presence of NADPH by LC-MS/MS analysis. Type of data set: ADME, Microsome.
Data set [16] deals with Voltage-gated inwardly rectifying potassium channel KCNH2 (Homo sapiens, UniProt Q12809). The data set is described as follows: Inhibition of hERG transfected in CHO cells at -80 mV holding potential by Whole-cell patch clamp assay. The class given is toxicity, cell-based.
Sequence of Voltage-gated inwardly rectifying potassium channel KCNH2 (Q12809 whole entry): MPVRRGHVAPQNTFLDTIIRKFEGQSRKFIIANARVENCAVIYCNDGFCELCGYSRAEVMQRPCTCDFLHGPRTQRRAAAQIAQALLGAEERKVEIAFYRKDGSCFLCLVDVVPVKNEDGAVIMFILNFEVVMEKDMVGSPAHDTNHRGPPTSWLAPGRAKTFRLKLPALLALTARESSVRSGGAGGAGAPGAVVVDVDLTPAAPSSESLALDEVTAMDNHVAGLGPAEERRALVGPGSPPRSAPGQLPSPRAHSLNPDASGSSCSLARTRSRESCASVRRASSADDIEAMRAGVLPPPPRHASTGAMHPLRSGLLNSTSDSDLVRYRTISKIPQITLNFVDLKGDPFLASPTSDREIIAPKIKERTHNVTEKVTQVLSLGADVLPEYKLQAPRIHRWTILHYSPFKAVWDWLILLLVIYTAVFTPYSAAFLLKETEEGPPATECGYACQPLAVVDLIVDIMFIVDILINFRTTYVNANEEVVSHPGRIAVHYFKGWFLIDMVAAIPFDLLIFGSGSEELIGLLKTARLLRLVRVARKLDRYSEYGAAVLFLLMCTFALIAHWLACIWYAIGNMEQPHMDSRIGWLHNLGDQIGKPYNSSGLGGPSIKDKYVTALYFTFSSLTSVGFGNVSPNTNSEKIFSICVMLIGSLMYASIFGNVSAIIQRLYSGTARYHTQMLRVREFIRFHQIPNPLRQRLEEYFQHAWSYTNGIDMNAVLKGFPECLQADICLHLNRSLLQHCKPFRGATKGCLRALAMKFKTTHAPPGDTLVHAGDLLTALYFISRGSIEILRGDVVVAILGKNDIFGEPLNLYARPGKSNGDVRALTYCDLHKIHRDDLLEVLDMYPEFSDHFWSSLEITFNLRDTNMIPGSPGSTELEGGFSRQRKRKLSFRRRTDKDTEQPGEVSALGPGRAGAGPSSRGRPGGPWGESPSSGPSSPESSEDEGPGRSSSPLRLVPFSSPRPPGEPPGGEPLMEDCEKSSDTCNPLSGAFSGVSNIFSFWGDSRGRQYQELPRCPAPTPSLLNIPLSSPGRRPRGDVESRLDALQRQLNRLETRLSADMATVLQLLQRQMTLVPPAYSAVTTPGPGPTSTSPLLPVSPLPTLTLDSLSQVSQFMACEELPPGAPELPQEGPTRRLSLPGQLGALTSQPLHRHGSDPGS
The nature of data set [17]: Phototoxicity in mouse BALB/3T3 clone A31 cells incubated under dark condition for 1 hr followed by 2.5 J/cm2 UVA light irradiation for 18 mins by neutral red dye based assay. The class given is toxicity, cell-based. The settings on record: balb/3t3 clone a31, 1.3 h, time 78 min.
Data set [18] can be described thus: Mutagenicity in Salmonella typhimurium by Ames test. As to conditions: salmonella enterica subsp. enterica serovar typhimurium. The class given is toxicity. For orientation: The Ames test uses bacterial strains that need an amino acid and regain growth without it when mutated back.
Data set [19] concerns HepG2. The data set is described as follows: Induction of phospholipidosis in human HepG2 cells assessed as increase in phospholipids within lysosome by high content screening analysis. The class given is toxicity, cell-based.
Data set [20] is described as follows: Induction of steatosis in human HepG2 cells assessed as accumulation of triglycerides in cytoplasm by high content screening analysis. The class given is toxicity, cell-based.
The nature of data set [21]: Drug concentration in C57BL/6J mouse blood at 3 mg/kg, iv measured after 5 mins by LC-MS/MS analysis. The class given is ADME, organism-based. As to conditions: read-out: Ct.
Data set [22] is described as follows: Drug concentration in C57BL/6J mouse brain at 3 mg/kg, iv measured after 5 mins by LC-MS/MS analysis. The class given is ADME, organism-based. The settings on record: read-out: Ct.
Data set [23] in a line: Ratio of drug concentration in C57BL/6J mouse brain to blood at 3 mg/kg, iv measured after 5 mins by LC-MS/MS analysis. As to conditions: read-out: BBR. The class given is ADME, organism-based.
Data set [24] deals with NLRC4 (Homo sapiens). The data set can be described thus: Inhibition of NLRC4 inflammasome activation in human PBMC assessed as reduction in IL-1beta secretion at 3 nM preincubated with LPS for 2.5 hrs followed by compound addition for 30 mins by ELISA.

T3 sequence (P08684 whole entry): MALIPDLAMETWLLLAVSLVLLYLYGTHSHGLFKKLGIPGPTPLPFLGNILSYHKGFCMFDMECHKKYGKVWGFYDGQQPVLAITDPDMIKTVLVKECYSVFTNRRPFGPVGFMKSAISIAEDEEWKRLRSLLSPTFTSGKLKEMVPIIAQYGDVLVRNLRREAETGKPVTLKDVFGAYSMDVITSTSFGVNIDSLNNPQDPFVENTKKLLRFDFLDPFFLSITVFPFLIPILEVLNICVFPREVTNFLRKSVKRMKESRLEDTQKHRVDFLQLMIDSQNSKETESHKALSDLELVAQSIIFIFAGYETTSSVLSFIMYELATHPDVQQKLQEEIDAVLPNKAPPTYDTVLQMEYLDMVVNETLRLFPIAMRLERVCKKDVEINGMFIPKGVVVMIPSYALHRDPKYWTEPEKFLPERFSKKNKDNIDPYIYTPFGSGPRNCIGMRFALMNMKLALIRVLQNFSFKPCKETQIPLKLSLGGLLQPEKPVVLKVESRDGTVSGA

`CCOC(=O)COC(=O)N(C)c1c2c(cc3c1CCC3)CCC2`: the IC50 in data set [1] and in [2] was greater than 40 µM throughout.

With `CCOC(=O)COC(=O)Nc1c(C)cccc1CC`, the IC50 (usually the midpoint of a concentration-inhibition curve) in data set [1] came out at 1.5 µM; in [2] it was 2.4 µM.

Take `CCOC(=O)COC(=O)Nc1c(F)cccc1F`: the IC50 in [1] was 1.9 µM; in data set [2], 9.4 µM.

In the case of `CC(C)(O)c1coc(S(=O)(=O)NC(=O)Nc2c3c(cc4c2CCC4)CCC3)c1`, the IC50 in data set [3] and in data set [4] was greater than 40 µM in each case. Moreover, in [5], the Papp at 4 h is less than 0.0003 ×10⁻⁶ cm/s.

Consider `CCOC(=O)[C@@H](Cc1ncccn1)NC(=O)Nc1c2c(cc3c1CCC3)CCC2`, for which the IC50 in data set [3] was found to be 2.7 µM; in data set [4], 4.3 µM. Besides, in data set [5], the Papp at 4 h came out at 8.2 ×10⁻⁶ cm/s.

As for `CCOC(=O)COC(=O)Nc1ccccc1OC(F)(F)F`, the IC50 in data set [1] and in data set [2] was greater than 20 µM each time.

For `CCOC(=O)COC(=O)Nc1ccccc1C(C)C`, the IC50 is 1.6 µM in data set [1] and 5.5 µM in [2].

As to `CC(C)OC(=O)[C@@H](Cc1cnccn1)OC(=O)Nc1c2c(cc3c1CCC3)CCC2`, the Papp at 4 h in [5] was 13.7 ×10⁻⁶ cm/s. Also, the solubility kinetic at 24 h in data set [6] amounted to 5.5 µM (≈ 2.25 µg/mL). In data set [7], the IC50 amounted to 1.1 µM.

For the molecule `CCOC(=O)COC(=O)Nc1c(Cl)cccc1Cl`, the IC50 is 1 µM in data set [1] and 9.2 µM in data set [2].

Take `CCOC(=O)COC(=O)Nc1c(C(C)C)cccc1C(C)C`: the IC50 was 10 µM in data set [1] and greater than 20 µM in [2].

Turning to `CC(C)OC(=O)[C@@H](Cc1ncccn1)OC(=O)Nc1c2c(cc3c1CCC3)CCC2` [NT-0796], the IC50 in data set [3] was greater than 2 µM; in data set [4], greater than 2 µM; in [8] it was greater than 30 µM; in data set [7] it was greater than 30 µM; in data set [9], greater than 30 µM; in [10], greater than 30 µM. For the same molecule, the IC50 in data set [11], in [13], in data set [14], in data set [15] and in [16] was greater than 30 µM in each case. For the same molecule, the Papp at 4 h in data set [5] was 11.8 ×10⁻⁶ cm/s. Moreover, in [6], the solubility kinetic at 24 h came to 28 µM (≈ 11.5 µg/mL). Moreover, the Activity in data set [12] was 90%; in [17], “Non-Toxic”; in data set [18] it was “Non-Toxic”. In addition, the MEC in [19] and in data set [20] was greater than 40 µM throughout. Further, the concentration at 5 min came out at 610 ng/mL in data set [21] and 479 ng/g in data set [22]. Moreover, in [23], the Kp at 5 min turned out to be 0.79. Moreover, the inhibition result in data set [24] is “inactive”.
